Data set [1] can be described thus: (§1) Toxicity against Artemia salina. The format is organism-based. To be noted: in vivo.
The test system of the next data set is Aspergillus niger. The data set can be described thus: Antimicrobial activity against Aspergillus niger. It counts as functional, organism-based.
In a further data set the test system is Escherichia coli. Kind of data set: Antimicrobial activity against Escherichia coli ATCC 10536. The format is functional, organism-based.
The next data set has as its system Trichoderma viride. Kind of data set: Antimicrobial activity against Trichoderma viride. It counts as functional, organism-based.
The subject of a further data set is Artemia salina. Described as §1. It counts as organism-based. The following applies: in vivo.

The source made the active and inactive calls. The calls are words filed in the database; no cut-off is given here.

What is called LC50 is the concentration that kills 50% of the test population. Higher therefore signals a less lethal substance. In data set [1], `C[C@@H]1C[C@]2(C)CC(=O)O[C@@H]3CCN4CC=C(COC(=O)[C@@]1(C)O2)[C@H]34` [RETROISOSENINE HYDRCHLORIDE] showed an LC50 of over 300 µg/mL.

`C[C@@H]1C[C@]2(C)CC(=O)O[C@@H]3CCN4CC[C@H](COC(=O)[C@@]1(C)O2)[C@H]34` [MULGEDIIFOLINE]: in data set [1], the LC50 is over 300 µg/mL. Further, the result in the data set with Aspergillus niger, in the data set on Escherichia coli and in the data set on Trichoderma viride was inactive.

On to `C[C@@H]1C[C@]2(C)CC(=O)O[C@@H]3CCN4CC=C(COC(=O)[C@@]1(C)O2)[C@H]34`, for which the outcome in the data set with Aspergillus niger, with Escherichia coli and in the data set with Trichoderma viride was inactive.

In the case of `C[C@@H]1[C@@H](O)[C@]2(C)CC(=O)O[C@@H]3CCN4CC=C(COC(=O)[C@@]1(C)O2)[C@H]34`, the 50% lethal concentration (LC50) in data set [1] was over 300 µg/mL. For the same compound, the outcome with Aspergillus niger, in the data set on Escherichia coli and in the data set with Trichoderma viride was inactive.

As to `C[C@@H]1C[C@]2(C)CC(=O)O[C@@H]3CCN4CC=C(COC(=O)[C@@]1(C)O2)[C@H]34` [RETROISOSENINE], in the data set with Artemia salina, the LC50 is over 300 µg/mL.
